{
  "source": "paper PMC6934184",
  "about": "“Selective DNA-PKcs inhibition extends the therapeutic index of localized radiotherapy and chemotherapy” (The Journal of Clinical Investigation, 2019)",
  "molecular_target": "T1, TYRO3 (RSE) (Homo sapiens, UniProt Q06418)",
  "T1 construct": "purchased Thermo Fisher Scientific (Life Technologies) SelectScreen",
  "T1 sequence (Q06418 41-890)": "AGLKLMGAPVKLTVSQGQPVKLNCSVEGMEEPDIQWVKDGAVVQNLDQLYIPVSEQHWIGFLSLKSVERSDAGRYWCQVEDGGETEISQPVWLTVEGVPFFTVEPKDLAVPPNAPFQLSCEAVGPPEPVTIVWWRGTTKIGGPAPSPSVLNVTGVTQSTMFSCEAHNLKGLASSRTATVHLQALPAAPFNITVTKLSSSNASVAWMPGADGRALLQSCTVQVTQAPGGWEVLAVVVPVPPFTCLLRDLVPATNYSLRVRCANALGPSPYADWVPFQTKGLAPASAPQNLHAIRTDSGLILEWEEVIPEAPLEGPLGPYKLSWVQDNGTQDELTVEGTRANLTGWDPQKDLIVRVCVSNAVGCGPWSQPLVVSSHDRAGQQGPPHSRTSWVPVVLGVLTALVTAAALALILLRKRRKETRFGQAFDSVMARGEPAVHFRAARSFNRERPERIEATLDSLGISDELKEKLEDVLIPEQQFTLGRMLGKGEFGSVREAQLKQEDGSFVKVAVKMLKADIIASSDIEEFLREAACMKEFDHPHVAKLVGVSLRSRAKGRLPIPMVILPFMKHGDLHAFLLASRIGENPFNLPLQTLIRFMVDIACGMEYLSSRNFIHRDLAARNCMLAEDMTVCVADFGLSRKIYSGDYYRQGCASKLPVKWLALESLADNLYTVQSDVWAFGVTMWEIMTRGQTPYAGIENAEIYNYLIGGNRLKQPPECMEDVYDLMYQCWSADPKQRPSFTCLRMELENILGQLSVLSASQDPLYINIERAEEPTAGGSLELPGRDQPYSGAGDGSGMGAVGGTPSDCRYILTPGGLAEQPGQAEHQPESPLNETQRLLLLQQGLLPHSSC",
  "experiment": "SelectScreen Z'LYTE",
  "assay_type": "biochemical",
  "outline": "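Percent values come from Thermo SelectScreen profiling of NU5455, combining activity and binding assays. CSF1R was run in Z'LYTE format at Km app ATP, and CAMK1 in Adapta format with ATP listed at 10.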",
  "data": [
    {"smiles": "CN(C(=O)CN1CCOCC1)c1ccc2sc3c(-c4cccc5c(=O)cc(N6CC7CCC(C6)O7)oc45)cccc3c2c1", "note": "[NU5455]", "values": [
      {"measurement": "inhibition at 1 µM", "value": -5.1, "unit": "%"}
    ]}
  ]
}
